Experimental data taken from patent US11111238B2, “Coumarin derivatives, processes for their preparation and uses thereof for the treatment of cancer” (Lead Discovery Center GmbH, priority 2017, dated 2021).

What follows are compounds tested against mitochondrial RNA-polymerase (POLRMT) (Mus musculus, UniProt Q8BKF1) (assay: Homogeneous TR-FRET assay for mitochondrial transcription activity). Settings: homogeneous TR-FRET assay according to Example 4; activity class.
Sequence of mitochondrial RNA-polymerase (POLRMT) (Q8BKF1 42-1207): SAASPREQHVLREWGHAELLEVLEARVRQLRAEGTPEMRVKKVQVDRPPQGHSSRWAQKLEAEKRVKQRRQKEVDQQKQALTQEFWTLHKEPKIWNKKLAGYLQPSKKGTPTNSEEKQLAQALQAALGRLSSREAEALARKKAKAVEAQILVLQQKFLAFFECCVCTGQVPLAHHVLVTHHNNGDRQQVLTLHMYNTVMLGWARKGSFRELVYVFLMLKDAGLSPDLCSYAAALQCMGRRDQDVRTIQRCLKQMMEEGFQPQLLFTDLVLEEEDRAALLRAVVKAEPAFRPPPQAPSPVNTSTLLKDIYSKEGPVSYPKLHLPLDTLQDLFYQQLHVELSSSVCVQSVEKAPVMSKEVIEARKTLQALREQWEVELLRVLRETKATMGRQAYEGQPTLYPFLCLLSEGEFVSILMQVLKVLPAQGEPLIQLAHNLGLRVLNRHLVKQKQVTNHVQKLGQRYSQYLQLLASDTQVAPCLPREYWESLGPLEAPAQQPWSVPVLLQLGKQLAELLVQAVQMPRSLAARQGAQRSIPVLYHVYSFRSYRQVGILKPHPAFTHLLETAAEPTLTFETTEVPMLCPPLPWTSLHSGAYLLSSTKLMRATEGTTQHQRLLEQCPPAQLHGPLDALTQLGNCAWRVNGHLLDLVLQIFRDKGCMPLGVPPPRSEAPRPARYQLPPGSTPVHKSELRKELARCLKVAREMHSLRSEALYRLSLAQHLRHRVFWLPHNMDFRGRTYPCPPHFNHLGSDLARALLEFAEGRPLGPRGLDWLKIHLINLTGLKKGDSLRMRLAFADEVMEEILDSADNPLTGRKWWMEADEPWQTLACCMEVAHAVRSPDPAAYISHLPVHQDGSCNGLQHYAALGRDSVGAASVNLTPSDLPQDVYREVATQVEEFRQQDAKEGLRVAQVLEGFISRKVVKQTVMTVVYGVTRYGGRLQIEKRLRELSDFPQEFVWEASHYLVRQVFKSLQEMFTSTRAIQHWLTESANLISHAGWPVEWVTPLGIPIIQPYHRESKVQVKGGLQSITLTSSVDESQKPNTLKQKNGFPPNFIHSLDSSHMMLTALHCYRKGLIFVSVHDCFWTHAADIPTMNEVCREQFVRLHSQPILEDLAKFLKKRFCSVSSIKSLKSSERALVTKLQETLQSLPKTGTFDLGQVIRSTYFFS
Assay type: biochemical
Excerpt: The TR-FRET assay was basically conducted as described in WO2016/193,231A1, especially as described in example 1 (hereby incorporated by reference). With respect to the background of the mitochondrial transcription it is referred to Falkenberg et al. (2002) and Posse et al. (Posse et al., 2015). The method monitors the activity of mitochondrial RNA-polymerase via detection of the formation of its product, a 407 bp long RNA sequence. Detection of the product is facilitated by hybridization of two DNA-oligonucleotide probes to specific and adjacent sequences within the RNA product sequence. Upon annealing of the probes, two fluorophores that are coupled directly to an acceptor nucleotide probe (ATT0647, 5′) or introduced via a coupled streptavidin interacting with a biotinylated donor nucleotide probe on the other side (Europium cryptate, 3′) are brought into sufficient proximity to serve as a fluorescence-donor-acceptor pair as generally described in Walters and Namchuk (2003). Thus, a FRET signal at 665 nm is generated upon excitation at 340 nm.
Briefly, the protocol described here was applied for screening and activity determination in a low-volume 384-well microtiter plate with non-binding surface. For high-throughput application in the 1536-well microtiter plate format, volumes of the reagent mixes were adjusted, maintaining the volumetric ratio. Proteins POLRMT (NM_172551.3), TFAM (NM_009360.4) and TFB2 M (NM_008249.4) were diluted from their stocks to working concentrations of 150 nM, 1.8 μM and 330 nM respectively, in a dilution buffer containing 100 mM Tris-HCl pH 8.0, 200 mM NaCl, 10% (v/v) glycerole, 2 mM glutathione (GSH), 0.5 mM EDTA and 0.1 mg/mL BSA. Protein dilutions and template DNA, comprising a pUC18 plasmid encoding the mitochondrial light strand promoter, restriction linearized proximal to the promoter 3′-end (pUC-LSP), were mixed at the twofold final assay-concentration in a reaction buffer, containing 10 mM Tris-HCl pH 7.5, 10 mM MgCl2, 40 mM NaCl, 2 mM GSH, 0.01% (w/v) Tween-20 and 0.1 mg/mL BSA.
5 μL of this mix were dispensed, depending on the chosen microtiter plate format, using multi-channel pipettes or a Multidrop® dispenser (Thermo Fisher Scientific, Waltham Mass.) into the wells of a microtiter plate and incubated at room temperature (RT) for 10 min. Chemical compounds under scrutiny in the assay were applied using contact-free acoustic droplet-dispensing (Echo520® Labcyte Inc., Sunnyvale Calif.) from 10 mM compound stocks in 100% DMSO, to a final concentration of 10 μM or in serial dilution series of the required concentration range. Equal amounts of DMSO without any compound were added to positive control samples, followed by an incubation step at RT for 10 min.
The enzymatic reaction was started by the addition of 5 μL of a mix of […] in reaction buffer to a final concentration of 500 μM each. No nucleotide mix was added to negative control samples. The content of the wells was mixed using a VarioTeleshaker™ (Thermo Fisher Scientific, Waltham Mass.) at 1,500 rpm for 45 sec after which the microtiter plate was centrifuged at 500×g for 1 min. The samples were incubated for 2 h at RT with humidity control to avoid evaporation. The detection reagents were prepared in a buffer that was composed, such that the enzymatic reaction was terminated due to chelating of Mg-ions and increased ionic strength, containing 50 mM Tris-HCl pH 7.5, 700 mM NaCl, 20 mM EDTA, and 0.01% (w/v) Tween-20. Importantly Eu-cryptate-coupled streptavidin had to be pre-incubated with a 100-fold molar excess of a random sequence oligonucleotide for 10 min at RT in the dark to block unspecific binding of single stranded RNA to the protein. Subsequently, the blocked streptavidin(—Eu) was mixed with the DNA-probes on ice and kept away from light until use. […]
Work on COC(=O)CC1CCN(C(=O)C(C)Oc2ccc3c(-c4ccccc4C)cc(=O)oc3c2)CC1 (stereo not drawn) [Compound 83, methyl 2-[1-[2-[4-(o-tolyl)-2-oxo-chromen-7-yl]oxypropanoyl]-4-piperidyl]acetate] yielded an IC50 of 20 to 100 nM. For COC(=O)[C@H]1CCN(C(=O)[C@@H](C)Oc2ccc3c(-c4ccc(F)cc4Cl)cc(=O)oc3c2)C1 [Compound 157, methyl (3S)-1-[(2R)-2-[4-(2-chloro-4-fluoro-phenyl)-2-oxo-chromen-7-yl]oxypropanoyl]pyrrolidine-3-carboxylate], the IC50 was 20 to 100 nM. For CC(Oc1ccc2c(-c3ccccc3Cl)cc(=O)oc2c1)C(=O)N1CCC[C@H](C(=O)N(C)C)C1 (stereo partly drawn) [Compound 76, (3S)-1-[2-[4-(2-chlorophenyl)-2-oxo-chromen-7-yl]oxypropanoyl]-N,N-dimethyl-piperidine-3-carboxamide], the IC50 was 20 to 100 nM. For Cc1cc(F)ccc1-c1cc(=O)oc2cc(O[C@H](C)C(=O)N3CCC[C@H](C(=O)O)C3)ccc12 [Compound 158, (3S)-1-[(2R)-2-[4-(4-fluoro-2-methyl-phenyl)-2-oxo-chromen-7-yl]oxypropanoyl]piperidine-3-carboxylic acid], the IC50 was less than 20 nM. Compound CCOC(=O)C1(C)CCCN(C(=O)C(C)Oc2ccc3c(-c4ccc(F)cc4Cl)cc(=O)oc3c2)C1 (stereo not drawn) [Compound 95, ethyl 1-[2-[4-(2-chloro-4-fluoro-phenyl)-2-oxo-chromen-7-yl]oxypropanoyl]-3-methyl-piperidine-3-carboxylate] has an IC50 of 100 to 1000 nM. C[C@@H](Oc1ccc2c(-c3ccc(F)cc3Cl)cc(=O)oc2c1)C(=O)Nc1ccnc(C(=O)O)c1 [Compound 160, 4-[[(2R)-2-[4-(2-chloro-4-fluoro-phenyl)-2-oxo-chromen-7-yl]oxypropanoyl]amino]pyridine-2-carboxylic acid] gave an IC50 of less than 20 nM. Cc1ccccc1-c1cc(=O)oc2cc(O[C@H](C)C(=O)OC(C)C)ccc12 [Compound 55, (R)-isopropyl 2-((2-oxo-4-(o-tolyl)-2H-chromen-7-yl)oxy)propanoate] was tested, and the IC50 was less than 20 nM. Cc1ccccc1-c1cc(=O)oc2cc(O[C@H](C)C(=O)N3CCCCC3)ccc12 [Compound 30, 7-[(1R)-1-methyl-2-oxo-2-(1-piperidyl)ethoxy]-4-(o-tolyl)chromen-2-one] was tested, and the IC50 was less than 20 nM. CC(C)(Oc1ccc2c(-c3ccccc3Cl)cc(=O)oc2c1)C(=O)O [Compound 112, 2-[4-(2-chlorophenyl)-2-oxo-chromen-7-yl]oxy-2-methyl-propanoic acid] gave an IC50 of 100 to 1000 nM. For CC(Oc1ccc2c(-c3ccccc3Cl)cc(=O)oc2c1)C(=O)N1CCC[C@@H](C(=O)O)C1 (stereo partly drawn) [Compound 46, (3R)-1-[2-[4-(2-chlorophenyl)-2-oxo-chromen-7-yl]oxypropanoyl]piperidine-3-carboxylic acid], the IC50 was less than 20 nM. Work on Cc1ccccc1-c1cc(=O)oc2cc(OC(C)C(=O)N3CCC[C@@H](C(=O)O)C3)ccc12 (stereo partly drawn) [Compound 53, (3R)-1-[2-[4-(o-tolyl)-2-oxo-chromen-7-yl]oxypropanoyl]piperidine-3-carboxylic acid] yielded an IC50 of less than 20 nM. In the case of CCOC(=O)CC1CCCN(C(=O)C(C)Oc2ccc3c(-c4ccccc4C)cc(=O)oc3c2)C1 (stereo not drawn) [Compound 87, ethyl 2-[1-[2-[4-(o-tolyl)-2-oxo-chromen-7-yl]oxypropanoyl]-3-piperidyl]acetate], the IC50 is reported as 20 to 100 nM. Compound COC(=O)C[C@H]1CCN(C(=O)[C@@H](C)Oc2ccc3c(-c4ccc(F)cc4Cl)cc(=O)oc3c2)C1 [Compound 142, methyl 2-[(3R)-1-[(2R)-2-[4-(2-chloro-4-fluoro-phenyl)-2-oxo-chromen-7-yl]oxypropanoyl]pyrrolidin-3-yl]acetate] has an IC50 of 20 to 100 nM. CC(Oc1ccc2c(-c3ccccc3Cl)cc(=O)oc2n1)C(=O)N1CCC[C@H](C(=O)OC(C)(C)C)C1 (mixture of isomers) [Compound 171, tert-butyl rac-(3S)-1-[2-[4-(2-chlorophenyl)-2-oxo-pyrano[2,3-b]pyridin-7-yl]oxypropanoyl]piperidine-3-carboxylate] showed an IC50 of 100 to 1000 nM. Work on CNC(=O)C(C)Oc1ccc2c(-c3ccccc3Cl)cc(=O)oc2c1 (stereo not drawn) [Compound 51, 2-[4-(2-chlorophenyl)-2-oxo-chromen-7-yl]oxy-N-methyl-propanamide] yielded an IC50 of less than 20 nM. CC(Oc1ccc2c(-c3ccccc3Cl)cc(=O)oc2c1)C(=O)N1CCCC1 (stereo not drawn) [Compound 13, 4-(2-chlorophenyl)-7-(1-methyl-2-oxo-2-pyrrolidin-1-yl-ethoxy)chromen-2-one] showed an IC50 of less than 20 nM. Compound COC(=O)c1cncc(NC(=O)[C@@H](C)Oc2ccc3c(-c4ccc(F)cc4Cl)cc(=O)oc3c2)c1 [Compound 143, methyl 5-[[(2R)-2-[4-(2-chloro-4-fluoro-phenyl)-2-oxo-chromen-7-yl]oxypropanoyl]amino]pyridine-3-carboxylate] has an IC50 of 100 to 1000 nM. For C[C@@H](Oc1ccc2c(-c3ccccc3Cl)cc(=O)oc2c1)C(=O)N1CCC[C@H](CC(=O)O)C1 [Compound 103, 2-[(3R)-1-[(2R)-2-[4-(2-chlorophenyl)-2-oxo-chromen-7-yl]oxypropanoyl]-3-piperidyl]acetic acid], the IC50 was less than 20 nM. CCOC(=O)C1(C)CCCN(C(=O)C(C)Oc2ccc3c(-c4ccccc4C)cc(=O)oc3c2)C1 (stereo not drawn) [Compound 88, ethyl 3-methyl-1-[2-[4-(o-tolyl)-2-oxo-chromen-7-yl]oxypropanoyl]piperidine-3-carboxylate] gave an IC50 of 20 to 100 nM. With C[C@@H](Oc1ccc2c(-c3ccc(F)cc3Cl)cc(=O)oc2c1)C(=O)Nc1ccc(C(=O)O)nc1 [Compound 154, 5-[[(2R)-2-[4-(2-chloro-4-fluoro-phenyl)-2-oxo-chromen-7-yl]oxypropanoyl]amino]pyridine-2-carboxylic acid] the IC50 was less than 20 nM. Compound C[C@@H](Oc1ccc2c(-c3ccc(F)cc3Cl)cc(=O)oc2c1)C(=O)N1CCC(C(=O)O)CC1 [Compound 131, 1-[(2R)-2-[4-(2-chloro-4-fluoro-phenyl)-2-oxo-chromen-7-yl]oxypropanoyl]piperidine-4-carboxylic acid] has an IC50 of 20 to 100 nM. With CC(Oc1ccc2c(-c3cccc(F)c3Cl)cc(=O)oc2c1)C(=O)N1CCCC(S(N)(=O)=O)C1 (stereo not drawn) [Compound 52, 1-[2-[4-(2-chloro-3-fluoro-phenyl)-2-oxo-chromen-7-yl]oxypropanoyl]piperidine-3-sulfonamide] the IC50 was less than 20 nM. In the case of CCOC(=O)[C@H]1CCCN(C(=O)C(C)Oc2ccc3c(-c4ccccc4Cl)cc(=O)oc3c2)C1 (stereo partly drawn) [Compound 16, ethyl (3S)-1-[2-[4-(2-chlorophenyl)-2-oxo-chromen-7-yl]oxypropanoyl]piperidine-3-carboxylate], the IC50 is reported as less than 20 nM. In the case of COCCc1ccc(NC(=O)[C@@H](C)Oc2ccc3c(-c4ccc(F)cc4Cl)cc(=O)oc3c2)cc1 [Compound 140, (2R)-2-[4-(2-chloro-4-fluoro-phenyl)-2-oxo-chromen-7-yl]oxy-N-[4-(2-methoxyethyl)phenyl]propanamide], the IC50 is reported as 100 to 1000 nM. With Cc1ccccc1-c1cc(=O)oc2cc(OC(C)C(=O)N3CCC(F)(F)CC3)ccc12 (stereo not drawn) [Compound 71, 7-[2-(4,4-difluoro-1-piperidyl)-1-methyl-2-oxo-ethoxy]-4-(o-tolyl)chromen-2-one] the IC50 was 20 to 100 nM. CC(Oc1ccc2c(-c3ccccc3Cl)cc(=O)oc2c1)C(=O)Nc1ccccn1 (stereo not drawn) [Compound 31, 2-[4-(2-chlorophenyl)-2-oxo-chromen-7-yl]oxy-N-(2-pyridyl)propanamide] was tested, and the IC50 was less than 20 nM. Compound COC(=O)C1CCCN(C(=O)C(C)Oc2ccc3c(-c4ccccc4C)cc(=O)oc3c2)C1 (stereo not drawn) [Compound 6, methyl 1-[2-[4-(o-tolyl)-2-oxo-chromen-7-yl]oxypropanoyl]piperidine-3-carboxylate] has an IC50 of less than 20 nM.
